Laboratory results reported in article PMC9124818 (Pharmacology Research & Perspectives, 2022).
Where two headings read alike, the source gives them in different places.

What was measured:
CYP2D6 [1] = target: T1, CYP2D6 (Homo sapiens, UniProt P10635); assay: Direct CYP450 inhibition in human liver microsomes (dextromethorphan O-demethylation); details: for Inhibition (%): direct inhibition, FFA up to 60 µM, nFFA up to 100 µM; for Ah (guidance term): mechanistic static model, Supplemental Table 2; for Basic model: R1: R1 = 1 + (Imax,u/Ki,u)
Experimental: Microsomes from non‐transplantable human livers were prepared and characterized as outlined previously.[25], [26] A mixed‐gender pool of 200 individual human liver microsomal samples was used. Substrate concentrations and incubation conditions for determination of the kinetic constant (S50 or Km) used to select marker substrate concentrations were previously determined.[24]
Summary data are expressed as percent of control and mean ± standard deviation (SD) or standard error of the mean (SEM), as appropriate. Individual values from inhibition studies were processed with the laboratory information management system (LIMS) Galileo v3.3 (Thermo Fisher Scientific), which was used to calculate IC50 values from a four‐parameter logistic regression applied to percent inhibition versus concentration values. […] Based on FDA guidance for metabolism‐ and transporter‐mediated DDI studies,[15] basic kinetic models for transporter inhibition, CYP450 inhibition, and CYP450 induction were employed to calculate R, R1, and R3 values, respectively, and were compared to the respective predetermined threshold values listed in the guidance document.[15] […] Plasma protein binding data were used to estimate input parameters for fraction unbound to plasma proteins in the mechanistic static model (Supplemental Table 2). The fraction absorbed was assumed to be 100%, yielding the highest possible portal concentrations. […] Assays were performed in duplicate or triplicate according to previously published reports. Statistical analysis for replicates was not possible with n = 2 sample sizes.
(§1) This LIMS utilizes the Levenberg-Marquardt algorithm to perform nonlinear regression fitting of the data to the following 4-parameter sigmoidal-logistic IC50 equation:
(§2) As percent of control values are utilized, the Min is set to 0 and the Max is set to 100 (or other values, as appropriate). […] Therefore, when an IC50 value falls outside the concentration range studied, the IC50 values are reported to be greater than the highest concentrations of test article evaluated.

CYP2B6 mRNA = assay: CYP450 induction in cultured human hepatocytes, mRNA by qRT-PCR; format: cell-based; details: for CYP2B6 induction (abstract): cultured human hepatocytes; for Basic kinetic model: R3: per FDA Guidance (2020); for EC50 at 3 days: human, cultured cryopreserved hepatocytes; for EC50 at 3 days / Basic kinetic model: Emax (fold) / EC50: ± standard error; for EC50 at 3 days / EC50: read-out: Basic kinetic model: EC50; for Fold‐change method: Fold change: highest dose tested (40 µM fenfluramine, 50 µM norfenfluramine); for Fold‐change method: % of control: percent of positive control induction of mRNA; for Basic kinetic model: Emax (fold): fit of fold‐change −1 values
Experimental: Cells were then harvested to isolate RNA, which was analyzed by quantitative reverse transcription‐polymerase chain reaction (qRT‐PCR) for induction of CYP1A2, CYP2B6, and CYP3A4 mRNA levels. Total RNA was phase extracted with TRIzol followed by purification with an RNeasy Mini Kit (Qiagen Inc., Germantown, MD). Quantitative PCR was performed in triplicate with a 7900HT Fast Real Time PCR System, an Applied Biosystems Universal Master Mix, and TaqMan® Gene Expression Assays. The quantity of target cDNA relative to control cDNA (GAPDH) was determined by the ΔΔCT method (Applied Biosystems User Bulletin #2). Relative quantitation measures the change in mRNA expression in a test sample relative to that in the control sample (i.e., DMSO). This method assumes that the efficiency of target amplification and the efficiency of endogenous control amplification are approximately equal.
mRNA assessment was conducted using a quantitative reverse transcription-polymerase chain reaction (qRT-PCR) according to the Applied Biosystems protocol. Each PCR was performed in triplicate. A Primer Mix was prepared for each Gene Expression assay. A typical Primer Mix contained TaqMan Fast Advanced Master Mix (1X), Gene Expression Assay (1X, 900 nM forward and reverse primers) and ribonuclease (RNase)-free water. The Reaction Mix was prepared by adding the Primer Mix to cDNA. A percentage of samples (no less than 10%) included NACs. […] The relative quantity of the target cDNA compared with that of the control cDNA (GAPDH) was determined by the ΔΔCt method (Applied Biosystems User Bulletin #2). Relative quantitation measures the change in mRNA expression in a test sample relative to that in a control sample (eg, dimethyl sulfoxide [DMSO]). This method assumes that the efficiency of the target amplification and the efficiency of the endogenous control amplification are approximately equal.
This software analyzes relative gene expression using the comparative Ct method (ΔΔCt), which relates the PCR signal of the target transcript to the PCR signal of the target in an untreated control. Both the treated sample and the untreated control signals are normalized to the endogenous control (GAPDH), for which expression is not affected by treatment and expression is constant throughout the tissue being tested.
The level of mRNA expression relative to the positive control was calculated as follows: […]

CYP2B6 = target: T2, CYP2B6 (Homo sapiens, UniProt P20813); assay: Direct CYP450 inhibition in human liver microsomes (efavirenz 8-hydroxylation); details: for Inhibition (%): FFA up to 60 µM, nFFA up to 100 µM; for Basic model: R1: R1 = 1 + (Imax,u/Ki,u)
T2 sequence (P20813 1-491): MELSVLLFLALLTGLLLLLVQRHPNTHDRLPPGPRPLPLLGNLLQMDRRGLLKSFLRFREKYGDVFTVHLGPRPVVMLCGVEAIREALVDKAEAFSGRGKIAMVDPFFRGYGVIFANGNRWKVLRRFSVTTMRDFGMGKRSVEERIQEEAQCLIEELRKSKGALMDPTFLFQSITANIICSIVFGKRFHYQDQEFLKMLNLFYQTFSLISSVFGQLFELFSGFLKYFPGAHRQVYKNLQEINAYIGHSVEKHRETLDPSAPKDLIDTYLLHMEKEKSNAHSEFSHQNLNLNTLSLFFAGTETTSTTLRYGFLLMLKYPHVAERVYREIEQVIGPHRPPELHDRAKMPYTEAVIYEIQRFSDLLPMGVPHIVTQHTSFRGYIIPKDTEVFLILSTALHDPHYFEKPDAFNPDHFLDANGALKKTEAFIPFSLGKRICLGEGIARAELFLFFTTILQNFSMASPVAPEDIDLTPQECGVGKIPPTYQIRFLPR
From the text: A mixed‐gender pool of 200 individual human liver microsomal samples was used.
as §1, §2

CYP2D6 [2] = target: T1, CYP2D6; assay: Time- and metabolism-dependent inhibition, 30-min preincubation with or without NADPH (dextromethorphan O-demethylation); details: for IC50: human liver microsomes; for inhibition at 30 min: both, human, pooled human liver microsomes, pH 7.4, probe dextromethorphan (O-demethylation)
Experimental: These preincubations allowed assessment of the NADPH‐dependence of any time‐dependent CYP450 inhibition. Following the 30‐min preincubation, the NADPH‐generating system and/or marker substrate was added, and incubations were continued as described previously to measure residual CYP450 enzyme activity.

CYP1A2 mRNA = assay: CYP450 induction in cultured human hepatocytes, mRNA by qRT-PCR; format: cell-based; details: for Fold‐change method: Fold change: highest dose tested (40 µM fenfluramine, 50 µM norfenfluramine); for Fold‐change method: % of control: percent of positive control induction of mRNA
Experimental: Each PCR was performed in triplicate.

[3] = direct inhibition, substrate efavirenz
[4] = all three hepatocyte cultures, FFA up to 40 μM, nFFA 50 μM

T1 sequence (P10635 whole entry): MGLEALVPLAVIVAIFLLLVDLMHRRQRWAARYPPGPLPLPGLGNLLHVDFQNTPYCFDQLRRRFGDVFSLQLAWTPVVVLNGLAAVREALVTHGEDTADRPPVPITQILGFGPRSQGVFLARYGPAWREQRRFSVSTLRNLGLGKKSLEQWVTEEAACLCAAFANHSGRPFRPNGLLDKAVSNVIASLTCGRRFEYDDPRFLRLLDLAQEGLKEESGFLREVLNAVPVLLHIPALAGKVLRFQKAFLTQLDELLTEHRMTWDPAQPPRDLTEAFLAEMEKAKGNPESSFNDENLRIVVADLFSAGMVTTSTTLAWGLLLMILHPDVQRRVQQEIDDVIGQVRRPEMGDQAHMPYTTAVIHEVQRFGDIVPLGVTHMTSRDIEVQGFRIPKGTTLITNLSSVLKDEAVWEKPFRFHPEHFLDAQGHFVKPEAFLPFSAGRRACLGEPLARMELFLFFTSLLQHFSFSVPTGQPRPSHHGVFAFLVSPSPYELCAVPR

CCNC(C)Cc1cccc(C(F)(F)F)c1 (racemic) [FFA, (RS)‐ethyl(α‐methyl‐3‐trifluoromethylphenethyl)amine, reference compound]
IC50 (CYP2D6 [1]): 4.7 ± 0.2 µM | Ki (CYP2D6 [1]): 2.17 µM | Inhibition (%) (CYP2D6 [1]; substrate dextromethorphan): 90% | Ah (guidance term) (CYP2D6 [1]): 0.867 | Basic model: Potential for clinical inhibition (CYP2D6 [1]; substrate dextromethorphan): Yes (Potential to inhibit if R1 ≥ 1.02) | Static mechanistic model: Potential for clinical inhibition (CYP2D6 [1]; substrate dextromethorphan): No (Potential to inhibit if AUCR ≥ 1.25) | Basic model: R1 (CYP2D6 [1]; substrate dextromethorphan): 1.07 | CYP2B6 induction (abstract) (CYP2B6 mRNA): up to 2.8 fold | Basic kinetic model: Potential to induce (CYP2B6 mRNA; hepatocytes HC7‐8): No | Static mechanistic model: Potential to induce (CYP2B6 mRNA; hepatocytes HC7‐8): No (AUCR <0.8 to denote induction) | Basic kinetic model: R3 (CYP2B6 mRNA; hepatocytes HC7‐8): 0.87 | Basic kinetic model: Potential to induce (CYP2B6 mRNA; hepatocytes HC10‐8): Yes | Static mechanistic model: Potential to induce (CYP2B6 mRNA; hepatocytes HC10‐8): No (AUCR <0.8 to denote induction) | Basic kinetic model: R3 (CYP2B6 mRNA; hepatocytes HC10‐8): 0.77 | Basic kinetic model: Potential to induce (CYP2B6 mRNA; hepatocytes HC10‐10): Yes | Static mechanistic model: Potential to induce (CYP2B6 mRNA; hepatocytes HC10‐10): No (AUCR <0.8 to denote induction) | Basic kinetic model: R3 (CYP2B6 mRNA; hepatocytes HC10‐10): 0.76 | EC50 at 3 days (CYP2B6 mRNA; lot HC7-8, hepatocytes HC7‐8): 8.32 ± 2.1 µM | EC50 at 3 days (CYP2B6 mRNA; lot HC10-8, hepatocytes HC10‐8): 13.6 ± 1.5 µM | EC50 at 3 days (CYP2B6 mRNA; lot HC10-10, hepatocytes HC10‐10): 4.61 ± 3.3 µM | IC50 (CYP2B6): > 60 µM | Inhibition (%) (CYP2B6; [3]): 6.1% | Basic model: Potential for clinical inhibition (CYP2B6; substrate efavirenz): No (Potential to inhibit if R1 ≥ 1.02) | Static mechanistic model: Potential for clinical inhibition (CYP2B6; substrate efavirenz): No (Potential to inhibit if AUCR ≥ 1.25) | Basic model: R1 (CYP2B6; substrate efavirenz): 1.01 | IC50 (CYP2D6 [2]; IC50 (+ NADPH), 30-min preincubation in the presence of NADPH): 10 µM | IC50 (CYP2D6 [2]; IC50 (- NADPH), 30-min preincubation in the absence of NADPH): 4.5 µM | inhibition at 30 min (CYP2D6 [2]; % inhibition (+ NADPH), 30-min preincubation in the presence of NADPH): 82% | inhibition at 30 min (CYP2D6 [2]; % inhibition (- NADPH), 30-min preincubation in the absence of NADPH): 89% | % as effective as the positive control, omeprazole (CYP1A2 mRNA) (CYP1A2 mRNA; [4]): < 20%

CC(N)Cc1cccc(C(F)(F)F)c1.Cl (stereo not shown) [nFFA, [1‐(3‐trifluoromethyl)phenyl]propan‐2‐amine hydrochloride]
IC50 (CYP2D6 [1]; direct inhibition (no preincubation), human liver microsomes, substrate dextromethorphan): 16 ± 1 µM | Inhibition (%) (CYP2D6 [1]; substrate dextromethorphan): 82% | Ah (guidance term) (CYP2D6 [1]): 0.988 | Ki (CYP2D6 [1]; read-out: Ki, u, IC50 divided by 2, assumes [S] = Km, adjusted for estimated unbound fraction in microsomes): 7.86 µM | Basic model: Potential for clinical inhibition (CYP2D6 [1]; substrate dextromethorphan): No (Potential to inhibit if R1 ≥ 1.02) | Static mechanistic model: Potential for clinical inhibition (CYP2D6 [1]; substrate dextromethorphan): No (Potential to inhibit if AUCR ≥ 1.25) | Basic model: R1 (CYP2D6 [1]; substrate dextromethorphan): 1.01 | CYP2B6 induction (abstract) (CYP2B6 mRNA): up to 2.0 fold | Basic kinetic model: Potential to induce (CYP2B6 mRNA; hepatocytes HC7‐8): No | Fold‐change method: Potential to induce (CYP2B6 mRNA; hepatocytes HC7‐8): Yes | Static mechanistic model: Potential to induce (CYP2B6 mRNA; hepatocytes HC7‐8): No (AUCR <0.8 to denote induction) | Fold‐change method: Fold change (CYP2B6 mRNA; hepatocytes HC7‐8): 2.15 fold | Basic kinetic model: R3 (CYP2B6 mRNA; hepatocytes HC7‐8): 0.92 | Fold‐change method: % of control (CYP2B6 mRNA; hepatocytes HC7‐8): 10.60% | Basic kinetic model: Emax (fold) (CYP2B6 mRNA; hepatocytes HC7‐8): 1.14 ± 0.083 fold | EC50 (CYP2B6 mRNA; hepatocytes HC7‐8): 10.8 ± 2.3 µM | Basic kinetic model: Potential to induce (CYP2B6 mRNA; hepatocytes HC10‐8): No | Fold‐change method: Potential to induce (CYP2B6 mRNA; hepatocytes HC10‐8): Yes | Static mechanistic model: Potential to induce (CYP2B6 mRNA; hepatocytes HC10‐8): No (AUCR <0.8 to denote induction) | Fold‐change method: Fold change (CYP2B6 mRNA; hepatocytes HC10‐8): 3.01 fold | Basic kinetic model: R3 (CYP2B6 mRNA; hepatocytes HC10‐8): 0.93 | Fold‐change method: % of control (CYP2B6 mRNA; hepatocytes HC10‐8): 21.20% | Basic kinetic model: Emax (fold) (CYP2B6 mRNA; hepatocytes HC10‐8): 2.08 ± 0.197 fold | EC50 (CYP2B6 mRNA; hepatocytes HC10‐8): 26.4 ± 2.9 µM | Basic kinetic model: Potential to induce (CYP2B6 mRNA; hepatocytes HC10‐10): No | Fold‐change method: Potential to induce (CYP2B6 mRNA; hepatocytes HC10‐10): Yes | Static mechanistic model: Potential to induce (CYP2B6 mRNA; hepatocytes HC10‐10): No (AUCR <0.8 to denote induction) | Fold‐change method: Fold change (CYP2B6 mRNA; hepatocytes HC10‐10): 2.54 fold | Basic kinetic model: R3 (CYP2B6 mRNA; hepatocytes HC10‐10): 0.88 | Fold‐change method: % of control (CYP2B6 mRNA; hepatocytes HC10‐10): 21.60% | Basic kinetic model: Emax (fold) (CYP2B6 mRNA; hepatocytes HC10‐10): 1.36 ± 0.11 fold | EC50 (CYP2B6 mRNA; hepatocytes HC10‐10): 8.81 ± 1.6 µM | IC50 (CYP2B6; direct inhibition, human liver microsomes, substrate efavirenz): > 100 µM | Inhibition (%) (CYP2B6; [3]): 23% | Basic model: Potential for clinical inhibition (CYP2B6; substrate efavirenz): No (Potential to inhibit if R1 ≥ 1.02) | Static mechanistic model: Potential for clinical inhibition (CYP2B6; substrate efavirenz): No (Potential to inhibit if AUCR ≥ 1.25) | Basic model: R1 (CYP2B6; substrate efavirenz): 1.00 | % inhibition (- NADPH) (CYP2D6 [2]; 30-min preincubation in the absence of NADPH): 82% | % inhibition (+ NADPH) (CYP2D6 [2]; 30-min preincubation in the presence of NADPH): 80% | IC50 (CYP2D6 [2]; read-out: IC50 (+ NADPH), 30-min preincubation in the presence of NADPH): 17 ± 1 µM | IC50 (CYP2D6 [2]; read-out: IC50 (- NADPH), 30-min preincubation in the absence of NADPH): 15 ± 1 µM | % as effective as the positive control, omeprazole (CYP1A2 mRNA) (CYP1A2 mRNA; [4]): < 20% | fold change in CYP1A2 mRNA levels (CYP1A2 mRNA; [4]): < 2 fold | Fold‐change method: Potential to induce (CYP1A2 mRNA; hepatocytes HC7‐8): No | Fold‐change method: Fold change (CYP1A2 mRNA; hepatocytes HC7‐8): 1.74 fold | Fold‐change method: % of control (CYP1A2 mRNA; hepatocytes HC7‐8): 2.35% | Fold‐change method: Potential to induce (CYP1A2 mRNA; hepatocytes HC10‐8): No | Fold‐change method: Fold change (CYP1A2 mRNA; hepatocytes HC10‐8): 1.92 fold | Fold‐change method: % of control (CYP1A2 mRNA; hepatocytes HC10‐8): 1.79% | Fold‐change method: Potential to induce (CYP1A2 mRNA; hepatocytes HC10‐10): No | Fold‐change method: Fold change (CYP1A2 mRNA; hepatocytes HC10‐10): 1.86 fold | Fold‐change method: % of control (CYP1A2 mRNA; hepatocytes HC10‐10): 1.96%
